{
  "source": "patent US20110256121A1",
  "about": "“METHODS AND KITS FOR DIAGNOSING OR MONITORING AUTOIMMUNE AND CHRONIC INFLAMMATORY DISEASES” (THE REGENTS OF THE UNIVERSITY OF MICHIGAN, priority 2008, published 2011)",
  "key": {"[1]": {"biological_target": "T1, KIR3DL1 (Homo sapiens, UniProt P43629)", "T1 construct": "endogenous in cells; host or cells: primary T cells of healthy donors, PHA-stimulated and 5-azaC treated, with autologous monocytes/macrophages", "T1 sequence (P43629 22-444)": "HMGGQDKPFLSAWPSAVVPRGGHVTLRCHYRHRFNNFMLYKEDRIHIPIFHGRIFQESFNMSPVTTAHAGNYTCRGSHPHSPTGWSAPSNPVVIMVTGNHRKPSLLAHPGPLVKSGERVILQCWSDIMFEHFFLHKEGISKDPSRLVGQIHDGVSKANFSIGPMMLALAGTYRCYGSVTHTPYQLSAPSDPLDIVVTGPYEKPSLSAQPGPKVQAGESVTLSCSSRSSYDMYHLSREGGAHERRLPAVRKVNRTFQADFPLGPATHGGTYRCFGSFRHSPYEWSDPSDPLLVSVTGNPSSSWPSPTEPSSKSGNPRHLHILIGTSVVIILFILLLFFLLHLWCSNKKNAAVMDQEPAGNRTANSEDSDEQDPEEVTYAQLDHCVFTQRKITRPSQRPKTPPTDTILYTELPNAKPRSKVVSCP", "test": "Macrophage killing assay with 5-azaC treated T cells, 51Cr release", "format": "cell-based", "settings": "18 hrs"}, "[2]": {"tested_on": "KIR2DL4", "test": "KIR2DL4 transcripts by real-time quantitative RT-PCR", "format": "cell-based, human", "settings": "relative to β-actin, p<0.001 for both", "description": "(§1) T cell purification and culture. Peripheral blood mononuclear cells (PBMC) were isolated from healthy donors by density gradient centrifugation, stimulated for 18 hours with 1 μg/mlphytohemagglutinin (PHA) (Murex, Norcross, Ga.), then treated or not with 5 μm 5-azacytidine (5-azaC, Sigma, St. Louis, Mo.) for 72 hours as described (6). Total T cells, CD4^+ T cells or CD8′ T cells then were purified using the pan T cell isolation kit II or the CD4^+ and CD8^+ T cell isolation kit II from Miltenyi (Auburn, Calif.). T cells were typically >94% CD3^+ by flow cytometry. Jurkat cells (E6-1) were maintained in culture as described (11). This protocol was approved by the University of Michigan Institutional Review Board.\nReal-time quantitative RT-PCR. Total RNA was isolated using the RNeasy Mini Kit (QIAGEN, Valencia, Calif.). Primers were designed to match polymorphic positions unique to KIR2DL2 or KIR2DL4 genes as described by Uhrberg et al. (13). Controls included β-actin primers as described (14). Real-time quantitative RT-PCR was performed with a Rotor-Gene 3000 (Corbett Robotics, San Francisco, Calif.) and QuantiTect SYBR Green RT-PCR kit (QIAGEN) according to manufacturer's instructions. cDNA synthesized from T cells was used to generate standard curves for β-actin, KIR2DL2 and KIR2DL4, and each experiment was repeated at least twice."}, "[3]": {"tested_on": "T cell gene expression", "test": "Microarray detection of KIR expression in 5-azaC treated T cells", "format": "cell-based, human", "description": "as §1\nMicroarray analysis. RNA from 5-azaC treated and untreated T cells was analyzed with HG-U133A arrays (Affymetrix, Santa Clara Calif.), containing 22283 probe-sets representing ˜13000 distinct genes, as described (6). Probe-set intensities were obtained and normalized as described (12). Two-sample T-tests were used to compare groups, and fold-changes were determined using the ratio of the group means, after replacing means of less than 50 with 50. The array data are available from NCBI's Gene Expression Omnibus using series accession number GSE6008.\nMicroarray detection of KIR expression in 5-azaC treated T cells. Effects of DNA methylation inhibition on T cell gene expression were tested by stimulating PBMC from healthy donors with PHA, treating with 5-azaC, and comparing gene expression patterns in treated and untreated T cells with microarrays. 682 probe-sets were obtained giving p<0.01, out of a total of 22283 probe-sets, so that approximately 223 of the 682 probe-sets were expected to be false-positives. Further demanding at least a 1.5 fold difference in the means of treated and untreated groups reduced the list to 250 probe-sets, 6 of which were KIR genes (KIR2DL1 5.7 fold p=0.003, KIR3DL1 5.7 fold p=0.001, KIR2DL2 4.2 fold p=0.0005, KIR2DS4 2.8 fold p=0.009, KIR2DL3 2.3 fold p=0.004, and KIR2DL4 1.7 fold p=0.008), out of a total of 12 KIR genes on the array, indicating enrichment of this gene family (FIG. 24)."}, "[4]": {"tested_on": "KIR2DL4", "test": "Cell stimulation with immobilized anti-KIR2DL4 and IFN-γ quantitation (Example 15)", "format": "cell-based, human", "settings": "without anti-KIR2DL4 crosslinking, p<0.001", "description": "Cell stimulation and IFN-γ quantitation. Anti-human KIR2DL4 (R&D systems) or isotype matched control (10 μg/ml in PBS) were added to 24 well plates, incubated 6 hours 37° C., then the wells were washed twice with PBS to remove unbound antibody. 2×10^5 T cells were then added to the coated wells in RPMI 1640 supplemented with 10% FBS and cultured for 20 hours. The supernatant was then recovered and IFN-γ levels measured using a human IFN-γ ELISA kit (R&D Systems).\nKIR function in 5-azaC treated T cells. It was determined if 5-azaC induced KIR2DL4 stimulates IFN-γ in T cells. PBMC were stimulated with PHA for 18 hours, treated with 5-azaC, then 72 hours later CD4+ and CD8+ cells were isolated, stimulated for 6 hours with immobilized anti-KIR2DL4 or an isotype matched antibody, then IFN-γ was measured in the supernatant by ELISA."}, "[5]": {"tested_on": "KIR2DL4", "test": "KIR2DL4 expression on T cells by flow cytometry", "format": "cell-based, human", "settings": "5-azaC 72 h, p<0.001 for both", "description": "as §1\nFlow Cytometric Analysis. The following monoclonal antibodies were used: CYC-anti-CD3, FITC-anti-CD8, CYC-anti-CD4, FITC-anti-CD28, CYC-mouse IgG1 and FITC-mouse-IgG1 (all from BD PharMingen, San Diego, Calif.). Anti-CD158b1/b2, j-PE (GL183, reactive with KIR 2DL2/2DL3/2DS2) was obtained from Beckman Coulter Immunotech (Buckinghamshire, UK), anti-CD158d-PE (anti-KIR2DL4) from R&D Systems (Minneapolis, Minn.), and PE-mouse-IgG2A from Abcam (Cambridge Mass.). Cell staining and fixation were performed as described (2; 6), and cells analyzed using a FACSCalibur flow cytometer (BD Biosciences, Franklin Lakes, N.J.)."}, "[6]": {"tested_on": "KIR2DL2 and KIR2DL4 promoters", "test": "Chromatin immunoprecipitation (ChIP) assays", "format": "cell-based, human", "settings": "5-azaC treated vs untreated, n=3, p<0.03", "description": "Chromatin immunoprecipitation (ChIP) assays. Transcription factor binding to KIR2DL2 and KIR2DL4 promoter sequences was determined using mAb to Sp1 (Upstate Biotechnology), Ets1 and AML1 (Abcam) and the ChIP-IT kit with protocols provided by the manufacturer (Active Motif, Carlsbad, Calif.). Briefly, 4.5×10^7 untreated and 5-azaC treated T cells were crosslinked, sonicated, chromatin immunoprecipitated with the relevant mAb, and precipitated DNA amplified by real-time PCR using a Rotor-Gene 3000. Standard curves were determined for each primer set by dilution of the total input 5-azaC treated DNA in a 0.1-100 ng range. The amount of each sequence in the input and precipitated DNA was calculated from the cycle threshold (CT) for each primer set using the standard curves. The primers used were: […]\nChIP assays were then used to compare transcription factor binding to the KIR2DL2 and KIR2DL4 promoters in untreated and 5-azaC treated cells. […] The reason for this is uncertain, but may reflect the structural differences in the KIR2DL2 and KIR2DL4 promoters."}},
  "data": [
    {"smiles": "Nc1ncn([C@@H]2O[C@H](CO)[C@@H](O)[C@H]2O)c(=O)n1", "note": "[5-azaC, 5-azacytidine]", "values": [
      {"measurement": "killing of autologous Mo by demethylated (5-azaC treated) T cells", "setting": "[1]", "value": "spontaneously kill autologous Mo"},
      {"measurement": "KIR2DL4 mRNA in CD4+ and CD8+ T cells", "setting": "[2]", "value": "increase is significant on both subsets"},
      {"measurement": "KIR2DL2 expression, treated vs untreated", "setting": "[3]; PHA-stimulated, p=0.0005", "value": 4.2, "unit": "fold"},
      {"measurement": "KIR3DL1 expression, treated vs untreated", "setting": "[3]; PHA-stimulated, p=0.001", "value": 5.7, "unit": "fold"},
      {"measurement": "KIR2DL1 expression, treated vs untreated", "setting": "[3]; PHA-stimulated, p=0.003", "value": 5.7, "unit": "fold"},
      {"measurement": "KIR2DL3 expression, treated vs untreated", "setting": "[3]; PHA-stimulated, p=0.004", "value": 2.3, "unit": "fold"},
      {"measurement": "KIR2DL4 expression, treated vs untreated", "setting": "[3]; PHA-stimulated, p=0.008", "value": 1.7, "unit": "fold"},
      {"measurement": "KIR2DS4 expression, treated vs untreated", "setting": "[3]; PHA-stimulated, p=0.009", "value": 2.8, "unit": "fold"},
      {"measurement": "KIR2DS1 expression increase", "setting": "[3]; not statistically significant", "value": "> 1.5", "unit": "fold"},
      {"measurement": "KIR2DS3 expression increase", "setting": "[3]; not statistically significant", "value": "> 1.5", "unit": "fold"},
      {"measurement": "KIR3DL2 expression increase", "setting": "[3]; not statistically significant", "value": "> 1.5", "unit": "fold"},
      {"measurement": "IFN-γ secretion by 5-azaC treated CD4+ and CD8+ T cells", "setting": "[4]", "value": "secrete significant (p<0.001) amounts of IFN-γ"},
      {"measurement": "KIR2DL4 expression on CD4+ and CD8+ T cells", "setting": "[5]", "value": "induces KIR2DL4 expression on CD4+ and CD8+ T cells"},
      {"measurement": "binding of Sp1, Ets1 and AML1 to both promoters", "setting": "[6]", "value": "increases binding of all 3 transcription factors"}
    ]}
  ]
}
